Test results as given in patent US11779575B2, “Use of Wnt inhibitor Wnt-C59 in preparation of drug for treating SCN5A mutation-induced dilated cardiomyopathy” (ZHONGSHAN HOSPITAL, FUDAN UNIVERSITY, priority 2020, dated 2023).

How the values were obtained:
[1] = test system: SCN5A heterozygous mutant mice (KI) with galactose aging and adriamycin-induced DCM; experiment: Heart size comparison after 2 weeks of drug intervention; type: in vivo; conditions: KI+Wnt-C59 group vs KI group; intragastric 1 mg/kg.d for 2 weeks
Description: (§1) SPF-grade male C57BL/6 mice (purchased from Shanghai Jiesijie Experimental Animal Co., Ltd.) and SCN5A heterozygous mutant mice (aging 8 to 10 weeks and weighing 20 g to 25 g) were selected and intraperitoneally injected with d-galactose (500 mg/kg. d, sigma G5388) continuously for 8 weeks to construct aging models. Then the mice were intraperitoneally injected with adriamycin (4 intraperitoneal injections, total 10 mg/kg, Sangon A603456) to construct DCM models. After the models were constructed, cardiomyocytes were isolated from mice in each of the KI group and the WT group. The experimental scheme was approved by the Animal Management and Ethics Committee of Fudan University.
(§2) After the ultrasonic test, there were 3 groups for study: WT group, KI group, and KI+Wnt-C59 group. Adriamycin was used for molding, and at the same time, the KI+Wnt-C59 group was intragastrically administered with Wnt-C59 (1 mg/kg.d, MCE HY-15659) every day, and the WT and KI groups were intragastrically administered with an equal volume of sterile normal saline as a control. Mice in each group received normal diet and water, and the administration was conducted continuously for 2 weeks. The body weight was measured and recorded for mice in each group every day.
After 2 weeks of drug intervention, the mice were sacrificed and hearts thereof were collected for heart size comparison among the 3 groups.

[2] = test system: SCN5A heterozygous mutant mice (KI) with galactose aging and adriamycin-induced DCM; experiment: Evaluation on mouse cardiac function by echocardiography in aging and adriamycin-induced DCM model; type: in vivo; conditions: KI+Wnt-C59 group vs KI group, intragastric 1 mg/kg.d for 2 weeks
Description: as §1
as §2, with “Mice in each group received normal diet and water, and the administration was conducted continuously for 2 weeks.” left out
The echocardiogram was measured 2 weeks after the administration, with a probe frequency of 30 MHz. Specifically, the mice were anesthetized with isoflurane, and an M-mode image was recorded when a heart rate of the mice was maintained at 450 to 500 beats/min. […]

46 types of tumor cells = conditions: cited from earlier work

In the case of `Cc1cc(-c2ccc(CC(=O)Nc3ccc(-c4cccnc4)cc3)cc2)ccn1` [Wnt-C59], the heart size [1] is given as “significantly smaller”, the “cardiac function (left ventricular ejection fraction, LVEF)” value [2] is given as “significantly improved” and the “proliferation of tumor cells” value (46 types of tumor cells) is given as “significantly inhibit”.
